Experiments:
[1] = target: Platelet-derived growth factor receptor alpha (Homo sapiens, UniProt P16234); experiment: Inhibition of recombinant human N-terminal GST-His6 tagged PDGFRalpha (Q551 to L1089 residues) expressed in Sf9 insect cells using poly(Ala,Glu,Lys,Tyr)6:2:5:1 hydrobromide as substrate in presence of [gamma-33P]ATP
[2] = target: Cyclin-dependent kinase 2/cyclin E1 (Homo sapiens, UniProt P24941); experiment: Inhibition of CDK2/cyclin E (unknown origin) expressed in baculovirus infected insect Sf9 cells using histone H1 as substrate in presence of [gamma-33P]ATP
HCC827 [3] = experiment: Cytotoxicity against human HCC827 cells assessed as growth inhibition after 72 hrs by calcein-AM dye based fluorescence assay; type: functional; conditions: HCC827, 72 h
BT-474 = experiment: Cytotoxicity against human BT474 cells assessed as growth inhibition after 72 hrs by calcein-AM dye based fluorescence assay; type: functional; conditions: BT-474, 72 h
MCF7 = experiment: Cytotoxicity against human MCF7 cells assessed as growth inhibition after 72 hrs by calcein-AM dye based fluorescence assay; type: functional; conditions: MCF7, 72 h
K562 [4] = experiment: Cytotoxicity against human K562 cells assessed as growth inhibition after 72 hrs by calcein-AM dye based fluorescence assay; type: functional; conditions: K562, 72 h
EOL1 [5] = experiment: Cytotoxicity against human EOL-1 cells assessed as growth inhibition after 72 hrs by calcein-AM dye based fluorescence assay; type: functional; conditions: EOL1, 72 h
EOL1 [6] = experiment: Cell cycle arrest in human EOL-1 cells assessed as G1/G2-M ratio at GI50 concentration after 24 hrs by propidium iodide staining-based flow cytometry relative to control; type: functional
HCC827 [7] = experiment: Cell cycle arrest in human HCC827 cells assessed as G1/G2-M ratio at GI50 concentration after 24 hrs by propidium iodide staining-based flow cytometry relative to control; type: functional
K562 [8] = experiment: Cell cycle arrest in human K562 cells assessed as G1/G2-M ratio at GI50 concentration after 24 hrs by propidium iodide staining-based flow cytometry relative to control; type: functional
EOL1 [9] = experiment: Cell cycle arrest in human EOL-1 cells assessed as accumulation at sub-G1 phase at 0.008 uM after 24 hrs by propidium iodide staining-based flow cytometry (reference value: 20%); type: functional
EOL1 [10] = experiment: Cell cycle arrest in human EOL-1 cells assessed as accumulation at sub-G1 phase at 0.04 uM after 24 hrs by propidium iodide staining-based flow cytometry (reference value: 20%); type: functional
EOL1 [11] = experiment: Cell cycle arrest in human EOL-1 cells assessed as accumulation at sub-G1 phase at 0.2 uM after 24 hrs by propidium iodide staining-based flow cytometry (reference value: 20%); type: functional
EOL1 [12] = experiment: Cell cycle arrest in human EOL-1 cells assessed as accumulation at sub-G1 phase at 1 uM after 24 hrs by propidium iodide staining-based flow cytometry (reference value: 20%); type: functional
EOL1 [13] = experiment: Cell cycle arrest in human EOL-1 cells assessed as accumulation at G1 phase at 0.008 uM after 24 hrs by propidium iodide staining-based flow cytometry (reference value: 60.9%); type: functional
EOL1 [14] = experiment: Cell cycle arrest in human EOL-1 cells assessed as accumulation at G1 phase at 0.04 uM after 24 hrs by propidium iodide staining-based flow cytometry (reference value: 60.9%); type: functional
EOL1 [15] = experiment: Cell cycle arrest in human EOL-1 cells assessed as accumulation at G1 phase at 0.2 uM after 24 hrs by propidium iodide staining-based flow cytometry (reference value: 60.9%); type: functional
EOL1 [16] = experiment: Cell cycle arrest in human EOL-1 cells assessed as accumulation at G1 phase at 1 uM after 24 hrs by propidium iodide staining-based flow cytometry (reference value: 60.9%); type: functional
EOL1 [17] = experiment: Cell cycle arrest in human EOL-1 cells assessed as accumulation at S phase at 0.008 uM after 24 hrs by propidium iodide staining-based flow cytometry (reference value: 20.7%); type: functional
EOL1 [18] = experiment: Cell cycle arrest in human EOL-1 cells assessed as accumulation at S phase at 0.04 uM after 24 hrs by propidium iodide staining-based flow cytometry (reference value: 20.7%); type: functional
EOL1 [19] = experiment: Cell cycle arrest in human EOL-1 cells assessed as accumulation at S phase at 0.2 uM after 24 hrs by propidium iodide staining-based flow cytometry (reference value: 20.7%); type: functional
EOL1 [20] = experiment: Cell cycle arrest in human EOL-1 cells assessed as accumulation at S phase at 1 uM after 24 hrs by propidium iodide staining-based flow cytometry (reference value: 20.7%); type: functional
EOL1 [21] = experiment: Cell cycle arrest in human EOL-1 cells assessed as accumulation at G2/M phase at 0.008 uM after 24 hrs by propidium iodide staining-based flow cytometry (reference value: 18.4%); type: functional
EOL1 [22] = experiment: Cell cycle arrest in human EOL-1 cells assessed as accumulation at G2/M phase at 0.04 uM after 24 hrs by propidium iodide staining-based flow cytometry (reference value: 18.4%); type: functional
EOL1 [23] = experiment: Cell cycle arrest in human EOL-1 cells assessed as accumulation at G2/M phase at 0.2 uM after 24 hrs by propidium iodide staining-based flow cytometry (reference value: 18.4%); type: functional
EOL1 [24] = experiment: Cell cycle arrest in human EOL-1 cells assessed as accumulation at G2/M phase at 1 uM after 24 hrs by propidium iodide staining-based flow cytometry (reference value: 18.4%); type: functional

Platelet-derived growth factor receptor alpha, sequence (P16234 whole entry, the tested form may be a part): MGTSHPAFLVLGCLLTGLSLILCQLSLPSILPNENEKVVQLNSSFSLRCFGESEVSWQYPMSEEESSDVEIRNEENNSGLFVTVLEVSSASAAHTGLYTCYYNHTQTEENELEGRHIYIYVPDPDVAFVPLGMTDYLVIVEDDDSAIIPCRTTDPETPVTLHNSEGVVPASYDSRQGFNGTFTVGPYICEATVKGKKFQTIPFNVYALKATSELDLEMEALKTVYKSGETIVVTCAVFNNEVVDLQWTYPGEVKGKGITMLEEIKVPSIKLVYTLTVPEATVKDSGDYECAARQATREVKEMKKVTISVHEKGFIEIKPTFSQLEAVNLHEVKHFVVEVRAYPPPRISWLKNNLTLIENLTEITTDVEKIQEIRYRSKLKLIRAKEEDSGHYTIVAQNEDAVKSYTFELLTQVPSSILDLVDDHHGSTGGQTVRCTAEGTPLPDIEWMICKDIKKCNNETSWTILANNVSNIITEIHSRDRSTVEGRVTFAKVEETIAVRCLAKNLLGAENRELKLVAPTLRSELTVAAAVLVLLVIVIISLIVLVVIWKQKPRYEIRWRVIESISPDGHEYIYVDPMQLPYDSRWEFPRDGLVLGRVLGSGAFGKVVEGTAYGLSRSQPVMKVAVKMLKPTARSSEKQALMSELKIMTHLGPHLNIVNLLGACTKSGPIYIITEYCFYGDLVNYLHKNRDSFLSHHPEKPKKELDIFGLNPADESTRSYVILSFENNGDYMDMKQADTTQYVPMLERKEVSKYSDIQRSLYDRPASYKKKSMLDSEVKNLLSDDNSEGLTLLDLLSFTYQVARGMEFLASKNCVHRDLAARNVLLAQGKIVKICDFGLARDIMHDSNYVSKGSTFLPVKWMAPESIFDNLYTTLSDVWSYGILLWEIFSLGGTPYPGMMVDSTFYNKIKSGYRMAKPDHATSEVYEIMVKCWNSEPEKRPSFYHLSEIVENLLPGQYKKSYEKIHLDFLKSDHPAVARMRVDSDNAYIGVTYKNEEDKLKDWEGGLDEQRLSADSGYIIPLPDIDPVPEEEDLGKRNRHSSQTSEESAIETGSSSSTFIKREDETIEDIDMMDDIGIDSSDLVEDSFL

Q: Which IC50 [1] does the source give for `CC(C)CCn1cnc2c(Nc3cccc(Cl)c3)nc(N[C@H]3CC[C@H](N)CC3)nc21` here?
A: Its IC50 is 66 nM.

Q: And the IC50 [2]?
A: The IC50 was 275 nM.

Q: And the GI50 (HCC827 [3])?
A: Its GI50 is 10300 nM.

Q: What about the GI50 (BT-474) of the same molecule?
A: The GI50 was 3800 nM.

Q: And the GI50 (MCF7)?
A: Its GI50 is 2100 nM.

Q: What about the GI50 (K562 [4]) of the same molecule?
A: Its GI50 is 1500 nM.

Q: And the GI50 (EOL1 [5])?
A: Its GI50 is 60 nM.

Q: And the Ratio (EOL1 [6])?
A: Its Ratio is 6.

Q: And the Ratio (HCC827 [7])?
A: Its Ratio is 1.33.

Q: And the Ratio (K562 [8])?
A: The Ratio was 1.1.

Q: And the Activity (EOL1 [9])?
A: The Activity was 27.9%.

Q: And the Activity (EOL1 [10])?
A: The Activity was 36.5%.

Q: What about the Activity (EOL1 [11]) of the same molecule?
A: Its Activity is 49.8%.

Q: And the Activity (EOL1 [12])?
A: The Activity was 46.3%.

Q: What about the Activity (EOL1 [13]) of the same molecule?
A: Its Activity is 77.1%.

Q: What about the Activity (EOL1 [14]) of the same molecule?
A: The Activity was 86.1%.

Q: What about the Activity (EOL1 [15]) of the same molecule?
A: The Activity was 86.3%.

Q: And the Activity (EOL1 [16])?
A: Its Activity is 79.9%.

Q: And the Activity (EOL1 [17])?
A: The Activity was 12.5%.

Q: What about the Activity (EOL1 [18]) of the same molecule?
A: The Activity was 7.7%.

Q: And the Activity (EOL1 [19])?
A: The Activity was 10.6%.

Q: What about the Activity (EOL1 [20]) of the same molecule?
A: Its Activity is 14.5%.

Q: And the Activity (EOL1 [21])?
A: The Activity was 10.4%.

Q: And the Activity (EOL1 [22])?
A: The Activity was 6.2%.

Q: What about the Activity (EOL1 [23]) of the same molecule?
A: Its Activity is 3.1%.

Q: What about the Activity (EOL1 [24]) of the same molecule?
A: The Activity was 5.6%.

Source: ChEMBL document CHEMBL4177643, “Trisubstituted purine inhibitors of PDGFRα and their antileukemic activity in the human eosinophilic cell line EOL-1” (Bioorg Med Chem, 2017)
